Data: ChEMBL document CHEMBL1201862, “PubChem BioAssay data set” (2004)
Calls of active or inactive are those of the source.

Assays:
Beta-galactosidase = Beta-galactosidase (Escherichia coli, UniProt Q8VNN2); assay: PubChem AID 485352; format: functional
[1] = target: T1, Type-1 angiotensin II receptor (Homo sapiens, UniProt P30556); assay: antagonism of angiotensin II type 1 receptor – cell-based, uHTS hits, selectivity assay for APJ receptor antagonist project, dose response (AID 463214); format: functional;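 also: antagonist potency against angiotensin II stimulated AT1 response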
T1 sequence (P30556 whole entry): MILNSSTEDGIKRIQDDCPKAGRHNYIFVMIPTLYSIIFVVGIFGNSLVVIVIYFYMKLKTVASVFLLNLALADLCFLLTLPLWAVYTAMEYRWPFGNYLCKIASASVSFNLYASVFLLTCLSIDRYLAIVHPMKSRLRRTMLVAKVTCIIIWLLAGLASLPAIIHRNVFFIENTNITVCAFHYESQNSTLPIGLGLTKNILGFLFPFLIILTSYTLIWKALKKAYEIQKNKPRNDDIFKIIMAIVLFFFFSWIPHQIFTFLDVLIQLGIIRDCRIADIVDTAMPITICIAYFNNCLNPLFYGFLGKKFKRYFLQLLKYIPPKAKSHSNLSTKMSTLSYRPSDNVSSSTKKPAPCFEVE

[2] = target: T2, Long-chain-fatty-acid--AMP ligase FadD28 (Mycobacterium tuberculosis, UniProt P9WQ59); assay: Fluorescence polarization aasay to screen for inhibitors that compete for the binding of FadD28 to a bisubstrate Measured in Biochemical System Using Plate Reader - 2147-01_Inhibitor_Dose_CherryPick_Activity.; format: functional, Mycobacterium tuberculosis H37Rv
T2 sequence (P9WQ59 whole entry): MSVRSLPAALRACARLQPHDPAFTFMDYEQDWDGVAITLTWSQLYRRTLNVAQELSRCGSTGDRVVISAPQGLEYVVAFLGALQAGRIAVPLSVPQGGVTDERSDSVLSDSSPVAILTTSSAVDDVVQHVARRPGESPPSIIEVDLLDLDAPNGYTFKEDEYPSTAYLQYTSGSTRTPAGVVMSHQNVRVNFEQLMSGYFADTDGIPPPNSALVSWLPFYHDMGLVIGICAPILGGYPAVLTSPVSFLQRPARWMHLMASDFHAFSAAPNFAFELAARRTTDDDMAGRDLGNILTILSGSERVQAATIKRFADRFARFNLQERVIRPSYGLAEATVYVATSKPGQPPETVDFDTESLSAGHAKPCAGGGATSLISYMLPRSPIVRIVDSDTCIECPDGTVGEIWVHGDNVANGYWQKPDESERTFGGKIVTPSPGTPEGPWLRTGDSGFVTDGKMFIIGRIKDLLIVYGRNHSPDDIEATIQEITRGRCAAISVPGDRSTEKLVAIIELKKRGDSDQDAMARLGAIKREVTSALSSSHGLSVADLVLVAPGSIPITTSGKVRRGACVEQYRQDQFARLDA

Insulin-degrading enzyme [3] = target: T3, Insulin-degrading enzyme (Homo sapiens, UniProt P14735); assay: recombinant IDE activation, cell-free – biochemical, fluorescence polarization, counter-screen for IDE activator project, dose response (AID 588681)
T3 sequence (P14735 whole entry): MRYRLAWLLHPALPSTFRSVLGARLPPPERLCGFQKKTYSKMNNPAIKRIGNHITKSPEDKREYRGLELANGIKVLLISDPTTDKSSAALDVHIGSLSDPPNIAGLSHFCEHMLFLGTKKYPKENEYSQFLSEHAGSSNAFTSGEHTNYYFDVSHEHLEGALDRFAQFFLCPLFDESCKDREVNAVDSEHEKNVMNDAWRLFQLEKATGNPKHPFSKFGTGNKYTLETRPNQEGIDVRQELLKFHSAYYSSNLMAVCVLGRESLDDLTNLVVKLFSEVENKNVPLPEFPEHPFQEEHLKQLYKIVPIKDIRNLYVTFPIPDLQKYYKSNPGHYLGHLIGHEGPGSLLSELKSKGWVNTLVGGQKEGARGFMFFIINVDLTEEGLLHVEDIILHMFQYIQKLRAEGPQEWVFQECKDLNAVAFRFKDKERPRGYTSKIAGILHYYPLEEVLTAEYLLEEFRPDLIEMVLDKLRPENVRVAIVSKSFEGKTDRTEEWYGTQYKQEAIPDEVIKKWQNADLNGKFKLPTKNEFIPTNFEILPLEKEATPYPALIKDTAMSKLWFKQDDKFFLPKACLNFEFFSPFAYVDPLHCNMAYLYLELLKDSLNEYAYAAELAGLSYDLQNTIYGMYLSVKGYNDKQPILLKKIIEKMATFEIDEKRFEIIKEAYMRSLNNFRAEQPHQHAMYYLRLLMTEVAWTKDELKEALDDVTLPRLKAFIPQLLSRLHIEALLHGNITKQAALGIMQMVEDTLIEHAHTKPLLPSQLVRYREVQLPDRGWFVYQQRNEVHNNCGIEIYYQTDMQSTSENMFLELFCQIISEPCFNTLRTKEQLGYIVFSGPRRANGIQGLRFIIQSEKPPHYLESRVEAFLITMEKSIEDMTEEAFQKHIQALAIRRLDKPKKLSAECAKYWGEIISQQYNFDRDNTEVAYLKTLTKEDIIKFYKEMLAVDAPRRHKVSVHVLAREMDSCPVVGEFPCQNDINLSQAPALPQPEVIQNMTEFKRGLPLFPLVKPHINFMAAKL

Insulin-degrading enzyme [4] = target: T3, Insulin-degrading enzyme; assay: cellular IDE activation of Abeta substrate cleavage – fluorescence polarization, HEK cells, dose response (AID 588439); format: functional, cell-based
HEK293 [5] = assay: membrane integrity loss in HEK cells – cell-based, fluorescence, cytotoxicity control for IDE activator project, dose response (AID 588440); format: functional, Homo sapiens; conditions: Homo sapiens, HEK293;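 also: cytotoxicity by LDH release measuring loss of membrane integrity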
HEK293 [6] = assay: optical interference in Abeta FP readout, dose response, artefact control for IDE activator project, biochemical, fluorescence polarization (AID 588442); format: functional, cell-based; conditions: Homo sapiens
[7] = target: T4, Adenosylmethionine-8-amino-7-oxononanoate aminotransferase (Mycobacterium tuberculosis, UniProt P9WQ81); assay: Mycobacterium tuberculosis BioA enzyme inhibitor Measured in Biochemical System Using Plate Reader - 2163-02_Inhibitor_Dose_CherryPick_Activity.; format: functional, Mycobacterium tuberculosis UT205
T4 sequence (P9WQ81 whole entry): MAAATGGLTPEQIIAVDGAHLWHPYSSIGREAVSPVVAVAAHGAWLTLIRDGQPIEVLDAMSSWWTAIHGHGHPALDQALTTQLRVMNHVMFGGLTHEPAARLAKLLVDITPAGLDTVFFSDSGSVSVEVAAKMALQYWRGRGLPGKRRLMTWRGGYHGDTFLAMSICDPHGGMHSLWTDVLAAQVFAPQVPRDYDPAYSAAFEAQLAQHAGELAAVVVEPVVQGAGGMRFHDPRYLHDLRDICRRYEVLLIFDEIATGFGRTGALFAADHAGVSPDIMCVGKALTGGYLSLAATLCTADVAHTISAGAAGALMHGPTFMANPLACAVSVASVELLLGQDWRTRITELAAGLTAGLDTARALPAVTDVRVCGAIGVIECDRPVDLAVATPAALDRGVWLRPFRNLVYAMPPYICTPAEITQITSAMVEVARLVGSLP

P388/ADR = assay: cells; format: functional; conditions: Mus musculus
SN12K1 = assay: cells; format: functional; conditions: Homo sapiens
P388 = assay: cells; format: functional; conditions: Mus musculus
[8] = Fluorescence-based cell-based high throughput dose response assay for inhibitors of the interaction of nucleotide-binding oligomerization domain containing 2 (NOD2) and the receptor-interacting serine-threonine kinase 2 (RIPK2).; format: functional; conditions: Homo sapiens
[9] = target: Nuclear receptor subfamily 5 group A member 2 (Homo sapiens, UniProt O00482); format: functional, cell-based;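 also: HEK293T cells transfected with LRH-1 and a StAR promoter luciferase reporter; potency for inhibitors that lower LRH-1 driven reporter light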
Nuclear receptor subfamily 5 group A member 2, sequence (O00482 whole entry): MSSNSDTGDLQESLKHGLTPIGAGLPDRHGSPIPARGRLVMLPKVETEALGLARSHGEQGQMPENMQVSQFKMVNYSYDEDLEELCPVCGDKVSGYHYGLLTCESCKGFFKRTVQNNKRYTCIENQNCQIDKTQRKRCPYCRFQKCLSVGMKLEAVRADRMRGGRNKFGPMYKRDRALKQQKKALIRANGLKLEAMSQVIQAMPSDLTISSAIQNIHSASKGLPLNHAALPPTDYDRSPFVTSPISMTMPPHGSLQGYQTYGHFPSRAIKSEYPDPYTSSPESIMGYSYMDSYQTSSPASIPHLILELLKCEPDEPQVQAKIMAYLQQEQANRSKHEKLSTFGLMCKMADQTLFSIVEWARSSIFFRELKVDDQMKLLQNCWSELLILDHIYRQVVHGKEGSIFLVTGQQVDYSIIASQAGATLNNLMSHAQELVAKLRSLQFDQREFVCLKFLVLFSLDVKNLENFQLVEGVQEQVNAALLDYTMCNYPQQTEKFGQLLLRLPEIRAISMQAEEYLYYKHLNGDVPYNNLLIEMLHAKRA

Steroidogenic factor 1 = Steroidogenic factor 1 (Homo sapiens, UniProt Q13285); assay: Counterscreen for inverse agonists of the liver receptor homolog-1 (LRH-1; NR5A2): Luminescence-based cell-based high throughput dose response assay to identify inverse agonists of the Steroidogenic Factor 1 Nuclear Receptor (SF1; NR5A1).; format: functional
Steroidogenic factor 1, sequence (Q13285 whole entry): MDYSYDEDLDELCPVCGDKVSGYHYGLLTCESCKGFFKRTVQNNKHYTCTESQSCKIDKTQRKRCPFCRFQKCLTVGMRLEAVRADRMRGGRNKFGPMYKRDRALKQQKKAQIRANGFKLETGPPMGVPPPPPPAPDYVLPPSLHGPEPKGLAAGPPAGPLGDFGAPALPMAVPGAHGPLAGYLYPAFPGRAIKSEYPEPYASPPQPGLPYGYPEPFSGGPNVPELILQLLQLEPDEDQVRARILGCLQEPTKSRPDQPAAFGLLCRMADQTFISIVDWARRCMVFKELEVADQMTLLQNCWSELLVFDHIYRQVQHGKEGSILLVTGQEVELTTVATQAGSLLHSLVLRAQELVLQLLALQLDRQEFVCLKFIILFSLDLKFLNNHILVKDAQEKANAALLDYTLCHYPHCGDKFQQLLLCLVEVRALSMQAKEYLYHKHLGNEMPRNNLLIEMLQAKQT

Bcl-2-related protein A1 = target: T5, Bcl-2-related protein A1 (Mus musculus, UniProt Q07440); format: functional;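 also: confirmatory dose–response counterscreen on Bfl-1, used to check hits from a UBC13 polyubiquitin inhibitor campaign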
T5 sequence (Q07440 whole entry): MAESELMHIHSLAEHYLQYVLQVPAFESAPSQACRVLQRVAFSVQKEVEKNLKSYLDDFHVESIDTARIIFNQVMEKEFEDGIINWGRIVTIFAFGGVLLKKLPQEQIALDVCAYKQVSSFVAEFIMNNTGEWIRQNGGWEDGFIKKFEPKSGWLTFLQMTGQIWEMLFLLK

[10] = target: T6, Ubiquitin-conjugating enzyme E2 N (Homo sapiens, UniProt P61088); format: functional
T6 sequence (P61088 whole entry): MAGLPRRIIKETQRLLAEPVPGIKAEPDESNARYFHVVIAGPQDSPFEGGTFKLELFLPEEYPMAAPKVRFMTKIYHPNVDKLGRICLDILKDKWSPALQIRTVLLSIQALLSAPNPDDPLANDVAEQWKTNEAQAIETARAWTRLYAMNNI

[11] = target: T6, Ubiquitin-conjugating enzyme E2 N; format: functional; remark: listed apart in the source
[12] = viability of uninfected HEp-2 cells – cell-based, HTS, cytotoxicity control for RSV inhibitor project, dose response (AID 2410); format: functional; conditions: human respiratory syncytial virus
[13] = target: Intestinal-type alkaline phosphatase (Mus musculus, UniProt P24822); assay: PubChem AID 488785; format: functional
Intestinal-type alkaline phosphatase (Mus musculus, UniProt P24822), sequence (P24822 whole entry): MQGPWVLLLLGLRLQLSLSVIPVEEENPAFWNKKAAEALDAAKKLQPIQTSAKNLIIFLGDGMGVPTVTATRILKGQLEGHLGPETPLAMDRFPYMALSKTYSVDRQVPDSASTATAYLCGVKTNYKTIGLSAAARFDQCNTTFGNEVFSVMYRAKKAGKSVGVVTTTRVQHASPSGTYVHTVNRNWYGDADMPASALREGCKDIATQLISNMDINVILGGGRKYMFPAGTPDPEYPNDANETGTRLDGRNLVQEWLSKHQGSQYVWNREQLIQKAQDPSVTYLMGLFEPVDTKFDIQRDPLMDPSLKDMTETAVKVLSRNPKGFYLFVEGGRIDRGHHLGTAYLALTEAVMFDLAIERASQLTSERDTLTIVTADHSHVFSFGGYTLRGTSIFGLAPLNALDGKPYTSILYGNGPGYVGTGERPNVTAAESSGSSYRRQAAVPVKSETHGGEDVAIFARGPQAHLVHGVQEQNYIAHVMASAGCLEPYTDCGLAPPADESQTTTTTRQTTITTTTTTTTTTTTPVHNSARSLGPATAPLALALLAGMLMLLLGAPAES

[14] = target: T7, Alkaline phosphatase, tissue-nonspecific isozyme (Homo sapiens, UniProt P05186); assay: TNAP enzyme inhibition by screening hits, dose response, selectivity assay for mouse IAP inhibitor project, biochemical, human TNAP, uHTS hits (AID 488906); format: functional
T7 sequence (P05186 whole entry): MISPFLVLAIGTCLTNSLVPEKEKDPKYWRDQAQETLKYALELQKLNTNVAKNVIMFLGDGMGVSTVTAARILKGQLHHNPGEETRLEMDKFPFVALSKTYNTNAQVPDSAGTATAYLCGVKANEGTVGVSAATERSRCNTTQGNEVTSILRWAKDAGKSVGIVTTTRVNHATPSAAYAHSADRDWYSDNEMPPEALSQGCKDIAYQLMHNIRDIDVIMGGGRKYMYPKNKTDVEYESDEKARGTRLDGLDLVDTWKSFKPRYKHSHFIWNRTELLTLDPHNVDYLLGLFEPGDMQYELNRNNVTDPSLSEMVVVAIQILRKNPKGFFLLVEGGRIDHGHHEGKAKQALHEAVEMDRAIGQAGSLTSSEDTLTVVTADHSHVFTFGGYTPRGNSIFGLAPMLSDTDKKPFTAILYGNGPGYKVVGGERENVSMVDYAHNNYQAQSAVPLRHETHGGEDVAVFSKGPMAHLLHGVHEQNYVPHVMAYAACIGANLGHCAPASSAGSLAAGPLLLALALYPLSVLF

[15] = target: Intestinal-type alkaline phosphatase (Homo sapiens, UniProt P09923); assay: inhibition of human intestinal alkaline phosphatase – biochemical, dose response (AID 488876); format: functional
Intestinal-type alkaline phosphatase (Homo sapiens, UniProt P09923), sequence (P09923 whole entry): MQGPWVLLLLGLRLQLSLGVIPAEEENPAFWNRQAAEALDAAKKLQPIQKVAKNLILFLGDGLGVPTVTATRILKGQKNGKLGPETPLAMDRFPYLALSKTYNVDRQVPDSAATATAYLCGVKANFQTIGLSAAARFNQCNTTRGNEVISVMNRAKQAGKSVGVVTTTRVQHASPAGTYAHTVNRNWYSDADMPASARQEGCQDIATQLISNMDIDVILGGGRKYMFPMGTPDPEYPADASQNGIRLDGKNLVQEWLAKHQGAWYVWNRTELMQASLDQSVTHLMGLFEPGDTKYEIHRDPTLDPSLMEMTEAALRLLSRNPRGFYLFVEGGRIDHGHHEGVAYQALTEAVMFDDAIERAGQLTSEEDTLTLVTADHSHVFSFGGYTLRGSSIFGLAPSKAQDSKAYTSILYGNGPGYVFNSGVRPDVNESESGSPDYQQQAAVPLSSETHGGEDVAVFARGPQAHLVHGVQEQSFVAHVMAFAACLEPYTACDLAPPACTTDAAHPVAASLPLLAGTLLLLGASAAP

Beta-galactosidase, sequence (Q8VNN2 whole entry): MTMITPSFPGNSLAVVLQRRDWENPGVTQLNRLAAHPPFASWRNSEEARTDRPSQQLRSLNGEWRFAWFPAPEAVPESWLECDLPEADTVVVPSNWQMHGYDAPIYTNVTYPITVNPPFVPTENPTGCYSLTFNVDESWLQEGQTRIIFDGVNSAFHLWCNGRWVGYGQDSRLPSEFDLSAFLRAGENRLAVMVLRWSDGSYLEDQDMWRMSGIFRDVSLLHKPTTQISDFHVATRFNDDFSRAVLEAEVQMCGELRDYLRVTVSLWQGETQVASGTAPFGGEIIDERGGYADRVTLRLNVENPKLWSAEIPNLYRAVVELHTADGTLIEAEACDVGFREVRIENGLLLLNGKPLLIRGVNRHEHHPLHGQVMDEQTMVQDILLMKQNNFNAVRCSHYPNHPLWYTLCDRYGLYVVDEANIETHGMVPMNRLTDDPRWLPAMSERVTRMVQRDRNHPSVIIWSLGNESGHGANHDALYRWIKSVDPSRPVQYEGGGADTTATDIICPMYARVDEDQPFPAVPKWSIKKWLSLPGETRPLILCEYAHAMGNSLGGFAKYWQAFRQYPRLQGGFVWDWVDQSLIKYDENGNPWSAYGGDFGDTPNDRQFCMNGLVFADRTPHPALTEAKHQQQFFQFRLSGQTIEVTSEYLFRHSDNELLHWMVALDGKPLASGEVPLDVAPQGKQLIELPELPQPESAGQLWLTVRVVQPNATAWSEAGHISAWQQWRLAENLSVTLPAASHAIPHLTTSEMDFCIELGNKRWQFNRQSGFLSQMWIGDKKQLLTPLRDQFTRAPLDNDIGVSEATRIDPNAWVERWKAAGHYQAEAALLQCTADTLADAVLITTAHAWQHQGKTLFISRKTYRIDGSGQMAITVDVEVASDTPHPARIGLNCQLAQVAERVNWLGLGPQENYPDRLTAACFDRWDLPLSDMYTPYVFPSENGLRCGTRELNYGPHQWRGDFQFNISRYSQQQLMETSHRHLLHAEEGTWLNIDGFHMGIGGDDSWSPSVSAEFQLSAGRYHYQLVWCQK

## O=C(NNC(=S)Nc1ccc(Cl)cc1Cl)c1ccc(N2CCOCC2)c([N+](=O)[O-])c1
Beta-galactosidase
  EC50: > 40 µM (inactive)
[1]
  IC50: > 40 µM (not active)
[2]
  AC50: 40.2 µM (active)

## CCn1c(=O)c([N+](=O)[O-])c(NCc2ccc3c(c2)OCO3)c2ccccc21
Insulin-degrading enzyme [3]
  EC50: > 54.7 µM (inactive)
Insulin-degrading enzyme [4]
  EC50: > 54.7 µM (inactive)
HEK293 [5]
  IC50: > 89.2 µM (inactive)
HEK293 [6]
  EC50: > 55.9 µM (inactive)

## COc1ccc(CCN(C)c2ccc(C(N)=O)cc2[N+](=O)[O-])cc1OC
[7]
  AC50: 5.7 µM (active)

## COc1ccc(NC(=O)c2cnc(C)cn2)cc1-n1cnnn1
[7]
  AC50: 0.733 µM (active)

## COC(=O)c1ccc(NC(S)=NC2c3ccccc3CC2O)cc1 (stereo unspecified)
[2]
  AC50: 26.6 µM (active)

## Cc1ccc(NC(=O)CSCC(=O)Nc2sccc2C#N)cc1
[2]
  AC50: 18.9 µM (active)

## CC(=O)OC1C(O)C(C)OC(OC2C(OC(=O)C3CCC4C(C3)OC3(CC(OC(=O)/C=C/c5ccccc5)C(C)CO3)C43CO3)OC(C)C(O)C2OC(C)=O)C1O (stereo unspecified)
P388/ADR
  GI50: > 1.75 µM (inactive)
SN12K1
  GI50: 0.0172 µM (active)
P388
  GI50: 0.0895 µM (active)
[8]
  IC50: 49.8 µM (inactive)

## COc1ccc(NC(=O)COC(=O)c2cc(S(=O)(=O)N3CCCC3)ccc2O)cc1
[9]
  IC50: 35.9 µM (inactive)
Steroidogenic factor 1
  IC50: 11.2 µM (inactive)

## C#CCOCCOCCOCCNc1nc(N2CCN(C(=O)CCCCCCCCCCNC(=O)[C@H](CCCCN)n3cc(C)nn3)CC2)nc(N2CCN(C(=O)CCCCCCCCCCNC(=O)[C@@H]([C@H](C)O)n3cc(C)nn3)CC2)n1
Bcl-2-related protein A1
  IC50: > 20 µM (inactive)
[10]
  IC50: 11.1 µM (active)
[11]
  IC50: 6.61 µM (active)
Insulin-degrading enzyme [3]
  EC50: > 54.7 µM (inactive)
Insulin-degrading enzyme [4]
  EC50: > 54.7 µM (inactive)
HEK293 [5]
  IC50: 11.4 µM (inactive)
HEK293 [6]
  EC50: > 54.7 µM (inactive)

## C#CCOCCOCCOCCNc1nc(N2CCN(C(=O)CCCCCCCCCCNC(=O)[C@@H](CCSC)n3cc(CCO)nn3)CC2)nc(N2CCN(C(=O)CCCCCCCCCCNC(=O)[C@H]([C@@H](C)CC)n3cc(CCCCN=C(N)N)nn3)CC2)n1
[12]
  CC50: 16 µM (active)
Bcl-2-related protein A1
  IC50: 5.51 µM (active)
[10]
  IC50: 5.82 µM (active)
[13]
  IC50: 1.66 µM (active)
[11]
  IC50: 3.81 µM (active)
[14]
  IC50: 58.7 µM (active)
[15]
  IC50: > 100 µM (inactive)
Insulin-degrading enzyme [3]
  EC50: 2.36 µM (active)
Insulin-degrading enzyme [4]
  EC50: > 2.03 µM (active)
HEK293 [5]
  IC50: 4.44 µM (active)
HEK293 [6]
  EC50: > 56 µM (inactive)

## COc1cccc(-c2ccc3c(c2)[C@H]2[C@H](CCN2C(=O)C2CCC2)[C@@H](CO)N3)c1
[7]
  AC50: 7.13 µM (active)
